Broadly, the viability is a read-out of living cells in per cent, often relative to untreated cells.

Structures are written as SMILES.

These results are taken from patent publication US9597406B2, “Controlled release method for a pharmaceutical composition composed of chelating complex micelles” (Original BioMedicals Co., Ltd, priority 2012, dated 2017).

A short description of series [1]: MTT cell viability test of doxorubicin CCM (FePD) with and without deferoxamine. The series is classed as cell-based, mouse. Particulars: mouse, BNLCL.2 mouse embryonic liver cells, 2 h incubation, BNLCL.2 cells. The protocol: (§1) The cell viability test of doxorubicin CCM (FePD) was examined with and without adding metal chelator deferoxamine. MTT (3-(4,5-cimethylthiazol-2-yl)-2,5-diphenyl tetrazolium bromide) assay was used to assess the cytotoxicity of cells treated with FePD and deferoxamine.
(§2) The mouse embryonic liver cells (BNLCL.2) (100 μL) were inoculated onto a 96-well plate with density 1×10^5 cells/mL and cultured for 24 hr at 37° C. with 5% CO2 before subjecting to the test. After removal of supernatant, 100 μL of each sample was added to the cells and incubated for 2 hours (Table 1). The samples were sterilized by using 0.22 μm filters prior to treating the cells. The plate was then washed with PBS (phosphate buffered saline) and incubated with fresh medium for 24 hours. After removal of supernatant and washed with PBS, 10 μL MTT solution was added to the cells and incubated for 4 hours. The absorbance at 570 nm was measured (BioTek, Synergy TM2, USA).
(In general: Tetrazolium dyes change colour on reduction, which living cells bring about.)

The subject of series [2] is mouse embryonic liver cells (BNLCL.2). The description is as above. It counts as cell-based. Particulars: 4 μM, 2 h incubation, then 24 h fresh medium, BNLCL.2 cells, 4 µM. The protocol: as §1, §2

For the compound `CC(=O)N(O)CCCCCNC(=O)CCC(=O)N(O)CCCCCNC(=O)CCC(=O)N(O)CCCCCN` [deferoxamine], in series [1] (13.5 μM, then 24 h fresh medium), the viability at 2 h, 13.5 µM was 104%.

Regarding `COc1cccc2c1C(=O)c1c(O)c3c(c(O)c1C2=O)C[C@@](O)(C(=O)CO)C[C@@H]3O[C@H]1C[C@H](N)[C@H](O)[C@H](C)O1` [doxorubicin], in series [2], the “Cell viability (%)” value is 74.7292%. The viability at 2 h, 4 μM in series [1] (4 μM, then 24 h fresh medium) turned out to be 74.7%; in series [1] (Group G: 4 μM + deferoxamine (13.5 μM)), 78.3%.
